The text below walks through data of article PMC8505397, “Development of peptides targeting receptor binding site of the envelope glycoprotein to contain the West Nile virus infection” (Scientific Reports, 2021).

SMILES strings stand for the structures.

For data set [1], the system named is adhesion of rDIII on cultured hBMECs. Put plainly: Blocking of adhesion of rDIII on cultured hBMECs by peptides (immunocytochemistry). In kind it is cell-based, human. As to conditions: 5 µg (0.39 nM) rDIII pre-blocked with tenfold molar excess (3.9 nM) of peptide. How it is done: Cells were cultured as described in Supplementary Method S1. First, concentration-dependent immunocytochemistry was performed to reveal the minimum concentration of rDIII required to detect its adhesion to the endothelial cells. Details are presented in Supplementary Method S14.
After that, the ability of peptides to block the adhesion of rDIII to the culture of hBMECs was judged. A tenfold molar excess of each peptide was incubated with rDIII for 1 h at room temperature. Pre-incubated rDIII was subsequently used in the assay. Details are described in the Supplementary Method S14. […]
Blocking of adhesion of rDIII on cultured hBMECs by peptides (immunocytochemistry). First, different concentrations of rDIII were tested to get the minimum concentration of rDIII required to detect the adhesion of the domain to the cultured hBMECs. In short, hBMECs were cultured on collagen type I (Sigma) coated coverslips in a 12-well culture plate in EBM-2 medium (Lonza) as was described in Supplementary Method S1 until 70% confluency. Cells were washed 2 times with PBS (pH 7.4) and fixed with acetone/ethanol (8:2 [v/v]) for 10 min at 4°C. Cells were washed 3 times with PBS (pH 7.4) and incubated with rDIII at different concentrations (20 µg, 15 µg, 10 µg, 5 µg, 2.5 µg, 2 µg, and 1 µg) diluted in 1 mL of PBS (pH 7.4) for 1 h at room temperature with gentle shaking. […]

The test system of data set [2] is hBMECs. Put plainly: Peptide cytotoxicity assay (XTT). In kind it is cell-based, human. As to conditions: 1 μM, 2 μM, 4 μM and 6 μM; 24 h. How it is done: The toxicity of peptides was determined by the XTT test (AppliChem, USA) as per the manufacturer’s instructions. Details are presented in Supplementary Method S15. […]
Cytotoxicity assay. hBMECs were cultured in 96-well TPP tissue culture plates (Sigma) in supplemented EBM-2 medium (Lonza) to obtain ~70% confluency (as described in Supplementary Method S1). The peptides in concentrations of 1 µM, 2 µM, 4 µM, and 6 µM (diluted in 100 µL of EBM-2 medium supplemented only with 10% FBS, 10 mM HEPES and 1 ng/mL bFGF; Sigma) were added and incubated for 24 h at 37°C in a humid atmosphere of 5% CO2. Untreated cells served as a negative control (100% viability). For positive control, cells treated with 0.01% Triton X-100 were used. After incubation, the mixture of XTT and activation reagent (5:0.1 [v/v], 50 µL each well) was added to each well and incubated for an additional 3 h at 37°C in a humid atmosphere of 5% CO2. The absorbance was measured at 450 nm. The assay was performed in replicates. The viability (%) of endothelial cells was calculated using the formula: Cell viability (%) = [(A - xA ) × 100] / (xA -

Turning to `CC[C@H](C)[C@@H]1NC(=O)[C@@H](NC(=O)[C@H](C)N)CSSC[C@@H](C(=O)NCC(=O)NCC(=O)NCC(=O)N[C@@H](CO)C(=O)O)NC(=O)[C@H](C)NC(=O)[C@H](CCCNC(=N)N)NC(=O)[C@H]([C@@H](C)O)NC(=O)[C@H](CO)NC(=O)[C@H](CO)NC(=O)[C@H](Cc2c[nH]cn2)NC1=O` [CP4, CIHSSTRAC], the “inhibition of the adhesion of rDIII on endothelial cells (immunocytochemistry)” value in data set [1] was “able to inhibit the adhesion of rDIII on the endothelial cells”. The “cytotoxic effect on hBMECs (XTT)” value in data set [2] is “None of the peptides was toxic”.
